A short description of this data set: Solubility in water, visual, confirmed by HPLC assay of a saturated solution. It counts as physicochemical. As to conditions: thermodynamic from solid. The protocol:
Solubility of the Nitrate
The visual solubility was confirmed by an HPLC assay of a saturated solution. Solubility: 6 mg/ml.

For one compound, solubility results are on record in patent US20040029926A1 (priority 2000, published 2004).

Regarding `CN(CCOc1ccc(CC2SC(=O)NC2=O)cc1)c1ccccn1.O=[N+]([O-])O` (stereo not shown) [Nitrate, 5-[4-[2-(N-methyl-N-(2-pyridyl)amino)ethoxy]benzyl]thiazolidine-2,4-dione nitrate], the solubility (as a rule, the concentration that dissolves in the medium under given conditions) was found to be 6 mg/mL.
